Data published in patent publication US20080311045A1, “Polymersomes for Use in Acoustically Mediated Intracellular Drug Delivery in vivo” (Biovaluation & Analysis, Inc., priority 2007, published 2008).

Assays:
[1] = Micropipette aspiration of polymersome membranes (elastic moduli, rupture, toughness); format: physicochemical; conditions: micropipette aspiration at 23° C.
Protocol: A tool that has been used to measure many of the material properties of bilayer vesicles is, for example, “micropipette aspiration.” In micropipette aspiration, the rheology and material properties of micron-sized objects are measured using glass pipettes. Small, micron diameter pipettes are used to pick up, deform, and manipulate micron-sized objects, such as giant lipid vesicles. The aspiration pressure is controlled by manometers, in which the hydrostatic pressure in a reservoir connected to the micropipette is varied in relation to a fixed reference.
A deformable object is aspirated using a pressure driving force—or suction pressure—ΔP, and the object is drawn within the pipette to a projection length LP. […] The bending modulus is measured by exerting small tensions on the membrane, to smooth out thermally driven surface undulations. […] Procedures for this important technique and its many modification are readily available to those skilled in the art. […]
Analogous to a lipid bilayer, at low but increasing aspiration pressures, the thermally undulating polymersome membrane is progressively smoothed, increasing the projected area logarithmically with tension, τ. From the slope of this increase (i.e., in tension units of mN/m) versus the fractional change, α, in vesicle area, the bending modulus, Kb, is calculated (see, e.g., Evans et al., 1990) with the following equation: […]

[2] = Laser-photobleaching lipid probe diffusivity in membranes; format: physicochemical

With `CCCCCCCC/C=C\CCCCCCCC(=O)O[C@H](COC(=O)CCCCCCCCCCCCCCCCC)COP(=O)([O-])OCC[N+](C)(C)C` [SOPC, 1-stearoyl-2-oleoyl phosphatidylcholine] the “area expansion modulus, Ka” value [1] was about 180 mN/m and the lipid probe diffusivity [2] was “approximately 3×10^−8 cm^2/s”.
